# Laboratory results taken from PubChem BioAssay AID1963427 (Molecular Pharmacology Branch, DTP, NCI, 2024).
# Where “and” joins values, the source holds several entries; their conditions need not be identical. Equal entries are not always repeated.
# Test system: 317291-083-R-J1-PDC complex spheroid growth
# Test: Anticancer human tumor 317291-083-R-J1-PDC patient-derived soft tissue sarcoma cell line growth inhibition [Asc]
# Conditions: for viability, T/C: stronger effect = lower value
# Method: Multicellular complex tumor spheroid response to apoptosis pathway targeting inhibitors Alrizomadlin, Pelcitoclax, and Dasminapant in combination with a variety of drugs and investigational agents in selected tumor cell lines
# The MDM2 inhibitor alrizomadlin, the Bcl-2/Bcl-xL inhibitor pelcitoclax, and the IAPs inhibitor dasminapant were evaluated both individually and in combination with standard of care and investigational anticancer small molecules within a complex spheroid model of solid tumors. . Complex spheroids include a stromal component modeled by human endothelial cells (HUVEC) and fibroblasts modeled by human mesenchymal stem cells (MSCs). The concentration ranges selected for each drug and investigational agent were based upon clinically achievable concentrations if the clinical Cmax of the agent was known.
# Compounds. The drugs and investigational agents: alrizomadlin (APG-115; NSC831270), pelcitoclax (APG-1252; NSC835773), dasminapant (APG-1387;NSC834197), TAK-243 (NSC785004), copanlisib (NSC809693), olaparib (NSC753686), talazoparib (NSC767125), cobimetinib (NSC 768068), eltanexor (KPT-8602, NSC 794443), abemaciclib (NSC 768073), sotorasib (NSC818433), adagrasib (NSC 831453), MRTX-1133 (NSC 836407), Iadademestat (ORY1001, NSC 806812), and RMC-4630 (NSC839698), were obtained from the NCI Developmental Therapeutics Program Chemical Repository. The FDA-approved anticancer drug set is available from the Developmental Therapeutics Program at https://dtp.cancer.gov/organization/dscb/obtaining/available plates.htm. […] The stock solutions were prepared in dimethyl sulfoxide (DMSO, Sigma-Aldrich, St. Louis, MO, cat. D2650) at 800-fold the tested concentration and stored at -70 degrees C prior to their use. All drugs and investigational agents were tested over a range starting from a high concentration at or near the clinical Cmax and decreasing in half-log increments. If the clinical Cmax for an agent had not been determined, the highest concentration tested was 10 microM.
# The patient-derived cancer (PDC) cell lines include five colon adenocarcinomas: 186277-243-T-J2-PDC, 616215-338-R-J1-PDC, 439559-082-T-J2-PDC, 463943-066-T-J2-PDC, and 519858-162-T-J1-PDC; three pancreatic carcinomas: 323965-272-R-J2-PDC, 521955-158-R6-J3-PDC, and 521955-158-R2-J5-PDC; two uterine sarcomas: 327498-152-R-J2-PDC and 993429-296-R-J1-PDC; two rhabdomyosarcomas: 755483-174-R-J1-PDC and 772245-204-R-J1-PDC; two soft tissue sarcomas: 126254-015-R-J1-PDC and 494315-158-R-J1-PDC; two malignant fibrous histiocytomas: 317291-083-R-J1-PDC and 596521-263-R-J1-PDC; two breast carcinomas: 171881-019-R-J1-PDC and 885512-296-R-J2-PDC; and one ovarian carcinoma: 6556581-035-R-J-PDC were obtained from the NCI PDMR, (https://pdmr.cancer.gov). The established cell lines HSSY-2 synovial sarcoma (RRID:CVCL 8719), SYO-1 synovial sarcoma (RRID:CVCL_7146), MPNST malignant peripheral neural sheath tumor were obtained from the Sloan Kettering Institute. The following established cell lines were purchased from the American Type Culture Collection (ATCC, Manassas, VA), Sor the received from the NCI repository:, PANC-1 pancreatic carcinoma (CRL-1469, RRID:CVCL_0480), OVCAR-5 ovarian carcinoma (RRID:CVCL_1628), OVCAR-8 ovarian carcinoma (RRID:CVCL_1629), , MCF-7 breast carcinoma (CRL-12584, RRID:CVCL_0031), MDA-MB-231 breast carcinoma (CRL-12532, RRID:CVCL_0062), NCI-H1876 small cell lung carcinoma (CRL-5902, RRID:CVCL_1503), NCI-H510A small cell lung carcinoma (HTB-184, RRID:CVCL_1565), NCI-H1417 (CRL-5869, RRID:CVCL_1469), and NCI-H196 small cell lung carcinoma (CRL-5823, RRID:CVCL_1509). Dr. Peter Houghton (Greehey Children's Cancer Research Institute, University of Texas Health Science Center, San Antonio, TX) provided Rh-18 rhabdomyosarcoma (RRID:CVCL_1659). Pooled donor human umbilical vein endothelial cells (HUVEC, Lonza, cat. CC-2519) and human mesenchymal stem cells (hMSC, Lonza, cat. PT-2501) were purchased from Lonza (Walkersville, MD).
# Cell Culture. […]
# [1] = compound alone, run of 11/07/2022
# 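Note: compound exposure lasted seven days after spheroids formed for three days.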
# 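Throughout, for viability, T/C: 100% = DMSO vehicle control wells.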
Compound,"viability, T/C (compound 0.0316 µM)","viability, T/C (compound 0.1 µM)","viability, T/C (compound 0.316 µM)","viability, T/C (compound 1 µM)","viability, T/C (compound 3.16 µM)",IC50 (curve of compound),"viability, T/C (compound 0.00316 µM)","viability, T/C (compound 0.01 µM)",further results
C#Cc1c(F)ccc2cc(O)cc(-c3ncc4c(N5CC6CCC(C5)N6)nc(OCC56CCCN5CC(F)C6)nc4c3F)c12 (configuration not stated),86.9% and 91% and 105%,84.9% and 99.4% and 85.2%,87.6% and 108% and 105%,97.5% and 103% and 102%,95.8% and 90.8% and 94.6%,> 10 µM,–,–,"viability, T/C (compound 10 µM): 56.1% and 72.7% and 85.2%"
C=C(F)C(=O)N1CCN(c2nc(OCC3CCCN3C)nc3c2CCN(c2cccc4cccc(Cl)c24)C3)CC1CC#N (configuration not stated),83.4% and 107% (2×),76.7% and 88.1% and 99.1%,93.2% and 95.1% and 113%,89% and 89.6% and 87.7%,47% and 39% and 55.3%,2.89 µM and 2.46 µM and 3.47 µM,–,–,"viability, T/C (compound 10 µM): 0.16% and 0.29% and 0.23%"
C=CC(=O)N1CCN(c2nc(=O)n(-c3c(C)ccnc3C(C)C)c3nc(-c4c(O)cccc4F)c(F)cc23)C(C)C1 (configuration not stated),94.7% and 115% and 91.3%,116% and 91.4% and 84%,97.3% and 95.1% and 99.8%,117% and 90.1% and 95.4%,92.4% and 89.8% and 78.8%,> 10 µM,–,–,"viability, T/C (compound 10 µM): 61% and 73.1% and 78%"
CCN1C(C(=O)NC23CCC(C(=O)O)(CC2)CC3)C(c2cccc(Cl)c2F)C2(C(=O)Nc3cc(Cl)ccc32)C12CCCCC2 (configuration not stated),–,–,–,–,–,> 3 µM,–,–,"viability, T/C (compound 0.0949 µM): 96.6% [middle of 9 runs]; viability, T/C (compound 0.3 µM): 95.2% [middle of 9 runs]; viability, T/C (compound 3 µM): 87.6% [middle of 9 runs]; IC50 [1]: > 3 µM"
CCN1CCN(Cc2ccc(Nc3ncc(F)c(-c4cc(F)c5nc(C)n(C(C)C)c5c4)n3)nc2)CC1,99.1% and 98.7% and 102%,101% and 97.3% and 89.7%,72.4% and 84.1% and 82.4%,49.5% and 82.8% and 50.7%,–,> 1 µM,91.8% and 94.4% and 104%,93.8% and 95.1% (2×),–
CNC(C)C(=O)NC1CN(S(=O)(=O)c2cccc(S(=O)(=O)N3CCC4CCC(C(=O)NC(c5ccccc5)c5ccccc5)N4C(=O)C(NC(=O)C(C)NC)C3)c2)CCC2CCC(C(=O)NC(c3ccccc3)c3ccccc3)N2C1=O (configuration not stated),72.8% [middle of 9 runs],–,–,–,–,0.254 µM and 0.416 µM,–,–,–
COc1c(OCCCN2CCOCC2)ccc2c3n(c(=NC(=O)c4cnc(N)nc4)nc12)CCN3,73.5% and 93.8% and 80.6%,49.4% and 56.9% and 59.9%,25.9% and 37.9% and 33.4%,12.6% and 21.9% and 15.6%,–,0.149 µM and 0.158 µM and 0.103 µM,92% and 97.6% and 96.2%,90.5% and 100% and 93.7%,–
Cc1c(S(C)(=O)=O)c(-c2cc(F)cc(N3CCN(c4ccc(NS(=O)(=O)c5ccc(NC(CCN6CCC(C(=O)OCCCP(=O)(O)O)CC6)CSc6ccccc6)c(S(=O)(=O)C(F)(F)F)c5)cc4)CC3)c2)c(-c2ccc(Cl)cc2)n1C(C)C (configuration not stated),98% [middle of 7 runs],–,93.2% [middle of 7 runs],–,81% [middle of 7 runs],–,–,–,IC50 [1]: > 10 µM
Cc1nc(N2CCC3(CC2)COC(C)C3N)c(CO)nc1Sc1ccnc(N)c1Cl (configuration not stated),–,–,–,–,–,2 µM and > 3 µM,–,–,"viability, T/C (compound 0.00949 µM): 108% and 113% and 102%; viability, T/C (compound 0.03 µM): 83.1% and 90.6% and 95.5%; viability, T/C (compound 0.0949 µM): 79.3% and 103% and 99.2%; viability, T/C (compound 0.3 µM): 73.6% and 89.4% and 77.2%; viability, T/C (compound 0.949 µM): 59.2% and 66.4% and 64.5%; viability, T/C (compound 3 µM): 43.2% and 58.9% and 51%"
Cn1ncnc1[C@H]1c2n[nH]c(=O)c3cc(F)cc(c23)N[C@@H]1c1ccc(F)cc1,68.7% and 96.5% and 83%,70.7% and 81% and 56.7%,–,–,–,> 0.1 µM,80.5% and 107% and 99%,89.2% and 87.3% and 89%,"viability, T/C (compound 0.000316 µM): 99% and 111% and 93.9%; viability, T/C (compound 0.001 µM): 81.6% and 81.9% and 107%"
NC(=O)C(=Cn1cnc(-c2cc(C(F)(F)F)cc(C(F)(F)F)c2)n1)c1cncnc1,–,–,–,–,–,–,–,–,"viability, T/C (compound 0.000949 µM): 92.5% and 89.6% and 23.9%; viability, T/C (compound 0.003 µM): 88.1% and 74.5% and 25.9%; viability, T/C (compound 0.00949 µM): 92.4% and 72% and 36.3%; viability, T/C (compound 0.03 µM): 45.8% and 39.8% and 16%; viability, T/C (compound 0.0949 µM): 6.6% and 6.29% and 7.34%; viability, T/C (compound 0.3 µM): 3.75% and 1.91% and 3.91%"
NC1CCC(NC2CC2c2ccccc2)CC1 (configuration not stated),91.5% and 112% and 96.1%,97.7% and 80.4% and 90%,–,–,–,> 0.1 µM,84.8% and 99.5% and 109%,95.1% and 93.7% and 104%,"viability, T/C (compound 0.000316 µM): 107% and 84.4% and 104%; viability, T/C (compound 0.001 µM): 97.8% and 80.7% and 96.1%"
O=C(c1cc(Cc2n[nH]c(=O)c3ccccc23)ccc1F)N1CCN(C(=O)C2CC2)CC1,106% and 111% and 91.2%,76.1% and 100% and 97%,110% and 87.8% and 93.8%,83% and 101% and 88.7%,82.7% and 84.3% and 47.8%,8.07 µM and 9.24 µM and 2.97 µM,–,–,"viability, T/C (compound 10 µM): 42.5% and 46.9% and 32.5%"
O=C(c1ccc(F)c(F)c1Nc1ccc(I)cc1F)N1CC(O)([C@@H]2CCCCN2)C1,109% and 88.6% and 93.6%,94.1% and 119% and 117%,65.2% and 71.6% and 81.1%,19.6% and 18.1% and 25%,–,0.462 µM and 0.504 µM and 0.599 µM,97% and 91.5% and 98.6%,102% and 91.8% and 91%,–
